Measured values taken from PubChem BioAssay AID2305 (GlaxoSmithKline (GSK), 2010).

The compounds below were run on P. falciparum 3D7 growth, pLDH absorbance (assay: P. falciparum 3D7 growth inhibition, dose response, strain 3D7 (AID 2305)).
With `c1ccc(-c2cc(NCc3cccc4ccccc34)c3[nH]ncc3n2)cc1` the IC50 was 520 nM.
`CCN(CC)CCOC(=O)c1ccc(NC(=O)c2cn(-c3ccccc3)nc2-c2cccs2)cc1` showed an IC50 of 380 nM.
Work on `Cc1nnc2c(NC(=O)NC(C)C)cc3cc(-c4ccc(CN5CCCCC5)cc4)ccc3n12` yielded an IC50 of 1180 nM.
With `COc1ccc(C2=CCN(c3ccc(Cl)c(Cl)c3)C2=O)cc1OCCN1CCCCC1` the IC50 was 780 nM.
With `CC(C)N1CCN(C(CN2CCN(CCCOc3cccc(-c4ccccc4)c3)CC2)c2ccc(F)cc2)CC1` (stereo not drawn) the IC50 was 890 nM.
Compound `CCCCCCn1c(Sc2ccc(C#N)c([N+](=O)[O-])c2)nnc1-c1cccs1` has an IC50 of 710 nM.
`COCCOc1ccc(Nc2nccc(-c3c(-c4cccc(NC(=O)c5c(F)cccc5F)c4)nn4ccccc34)n2)cc1Cl` gave an IC50 of 360 nM.
`O=C(Nc1cccc(-c2nc3ccccc3[nH]2)c1)c1ccc(-c2cccc([N+](=O)[O-])c2)o1` showed an IC50 of 150 nM.
`COc1cc(C)nc2ccc(NC(=O)Nc3cccc4ccccc34)cc12` showed an IC50 of 880 nM.
`COc1cc2nc(N3CCC(CNC(=O)c4ccc(-c5ccc(C(=O)N(C)C)cc5OCCO)cc4)CC3)nc(N)c2cc1OC` showed an IC50 of 640 nM.
In the case of `CCN1CCN(C(=O)NC(C(=O)N(C)Cc2ccc(-c3ccc(C(F)(F)F)cc3)cc2)c2cccs2)C(=O)C1=O` (stereo not drawn), the IC50 is reported as 360 nM.
In the case of `Cc1noc(C)c1-c1cccc(CNCc2ccc(-c3ccc(-c4nc5ccc(F)cc5[nH]4)s3)cc2)c1`, the IC50 is reported as 420 nM.
For `O=C(CNC1CCCCC1)Nc1cccc(C(=O)Nc2cccc(C(F)(F)F)c2)c1`, the IC50 was 420 nM.
For `Cc1c(CN2CCCCC2)cccc1OCCCNc1nc(NCCc2ccc(O)cc2)nc(N2CCNCC2)n1`, the IC50 was 220 nM.
For `COc1ccc(C(=O)Nc2ccc(-c3ccc([N+](=O)[O-])cc3)cc2)cc1CCCN(C)C`, the IC50 was 800 nM.
For `C[C@@H](N=C(Nc1ccc(C#N)cc1O)Nc1ccccc1Cl)c1ccc(Br)cc1`, the IC50 was 750 nM.
`O=C(N[C@@H](Cc1cc(F)cc(F)c1)[C@H](O)CNCc1cccc(C(F)(F)F)c1)c1cc(C2CCCC2)cc(N2CCCC2=O)c1` was tested, and the IC50 was 800 nM.
Compound `Cc1sc(CNCCCNc2cc(=O)c3ccccc3[nH]2)c(C(F)(F)F)c1C` has an IC50 of 730 nM.
For `Cc1ccc(Nc2nc(-c3ccccn3)cs2)nc1`, the IC50 was 750 nM.
`COCC(C)n1c(SC(C)C(=O)Nc2cc([N+](=O)[O-])ccc2Cl)nc2ccccc2c1=O` (stereo not drawn) gave an IC50 of 230 nM.
With `CC(C)=CCN1CCC(C(=O)Nc2ccc(-c3nc4ccccc4[nH]3)cc2)CC1` the IC50 was 910 nM.
For `COc1ccc(CC(C)NCC(O)c2cccc(Cl)c2)cc1C` (stereo not drawn), the IC50 was 900 nM.
`O=C(c1ccccc1[N+](=O)[O-])N(Cc1ccccc1)c1ccccn1` gave an IC50 of 190 nM.
In the case of `O=C(N[C@@H](Cc1ccccc1)[C@H](O)CNC1CCCCC1)c1cc(C2CCCC2)cc(N2CCCC2=O)c1`, the IC50 is reported as 170 nM.
`CO/C(=C\C=C\c1cc2cc(Cl)c(Cl)cc2[nH]1)C(=O)NCCCN1CCN(c2cccc(Cl)c2)CC1` gave an IC50 of 730 nM.
Compound `NCC1CCCN1Cc1ccc(-c2ccc(-c3nc4ccc(C(F)(F)F)cc4[nH]3)cc2)cc1` (stereo not drawn) has an IC50 of 960 nM.
`Cc1cc2nc(-c3ccc(C(=O)NC4CCN(Cc5ccccc5)CC4)s3)[nH]c2cc1C` showed an IC50 of 770 nM.
`Nc1c(Cl)cc(C(O)CNCCCCCCOCCc2ccc(CO)s2)cc1Cl` (stereo not drawn) gave an IC50 of 1050 nM.
In the case of `COc1cc(Cc2cnc(N)nc2N)c2c(c1OC)OC(C)(C)C=C2`, the IC50 is reported as 1190 nM.
`CCCCN1CCN(CC(O)CNC(=O)Nc2ccc(Cl)cc2)CC1` (stereo not drawn) was tested, and the IC50 was 70 nM.
`CCCNc1ccc2nccc(CCN3CCC(NCc4ccc5c(n4)NC(=O)CS5)CC3)c2n1` gave an IC50 of 720 nM.
`CCNc1cc(C(=O)N[C@@H](Cc2ccccc2)[C@H](O)CNCCC(C)c2ccccc2)cc(N2CCCC2=O)c1` (stereo partly drawn) showed an IC50 of 510 nM.
`O=C(Nc1nc2cc(S(=O)(=O)NCCc3ccc(F)cc3)ccc2n1CCCn1ccnc1)c1ccc(Cl)cc1` showed an IC50 of 1110 nM.
`CCC[C@@H]([C@@H](CC1CCC(C)CC1)C(=O)N[C@@H](CCCNc1ncccn1)C(=O)Nc1nccs1)N(O)C=O` (stereo partly drawn) showed an IC50 of 190 nM.
`C=CCn1c(SCC(=O)Nc2cc(C)ccc2OC)nc2sc(C)cc2c1=O` gave an IC50 of 420 nM.
Compound `N#CCCN1CCN(Cc2cccc(-c3ccc(-c4nc5ccccc5[nH]4)s3)c2)CC1` has an IC50 of 760 nM.
For `CN(C)c1ccc(-c2nnc(Sc3ccc(C#N)c([N+](=O)[O-])c3)n2Cc2ccco2)cc1`, the IC50 was 850 nM.
Compound `COc1ccc(N2C(=O)c3c(c4ccccc4n3C)C2c2ccccc2O)cc1` (stereo not drawn) has an IC50 of 120 nM.
For `COc1ccc2ncc(F)c(CCN3C[C@H](CNCc4cc(F)c5c(c4)NC(=O)CO5)[C@H](O)C3)c2n1`, the IC50 was 670 nM.
With `O=C(Nc1ccc(Cl)cc1)c1cccc2[nH]c(C(F)(F)F)nc12` the IC50 was 760 nM.
`c1ccc(-c2ccc(CNCCCNc3nc4ccccc4[nH]3)cc2)cc1` was tested, and the IC50 was 780 nM.
In the case of `CCc1cc(NCc2ccncc2)nc(Nc2ccc(F)cc2)n1`, the IC50 is reported as 1330 nM.
Work on `CN1CCN(CC(=O)Nc2cccc(-c3ccc(-c4nc5ccc(C(F)(F)F)cc5[nH]4)cc3)c2)CC1` yielded an IC50 of 520 nM.
`NC1CCN(Cc2cccc(-c3csc(-c4nc5ccccc5[nH]4)c3)c2)C1` (stereo not drawn) showed an IC50 of 890 nM.
`O=C(NCCN1CCC(NC(=O)c2ccc(-c3ccccn3)s2)CC1)c1cccc(C(F)(F)F)c1` gave an IC50 of 860 nM.
`CCCCC([C@@H](Cc1ccc2ccccc2c1)C(=O)N[C@H](C(=O)NC)C(C)(C)C)N(O)C=O` (stereo partly drawn) was tested, and the IC50 was 140 nM.
`COc1cc(OC)cc(C(=O)Nc2nc(-c3ccccn3)cs2)c1` showed an IC50 of 560 nM.
Work on `O=[N+]([O-])c1ccc(Oc2c(Cl)cc(S(=O)(=O)NC3CCC(CN4CCC(c5c[nH]c6ccccc56)CC4)CC3)cc2Cl)c(Cl)c1` (stereo not drawn) yielded an IC50 of 760 nM.
